Calls of active or inactive are those of the source. No cut-off for these calls is given here.
Key:
Rattus norvegicus [1] = experiment: Antihepatotoxic activity Rattus norvegicus albino Wistar (rat) assessed as reduction of CCl4-induced increase of serum ALP level at 50 mg/kg, po relative to control; type: functional; design: scale not given: the % may be the effect or the level left
Rattus norvegicus [2] = experiment: Antihepatotoxic activity Rattus norvegicus albino Wistar (rat) assessed as reduction of CCl4-induced reduction of serum total protein level at 50 mg/kg, po relative to control; type: functional; design: scale not given: the % may be the effect or the level left
Rattus norvegicus [3] = experiment: Antihepatotoxic activity Rattus norvegicus albino Wistar (rat) assessed as reduction of CCl4-induced increase of serum SGOT level at 50 mg/kg, po relative to control; type: functional; design: scale not given: the % may be the effect or the level left
Rattus norvegicus [4] = experiment: Antihepatotoxic activity Rattus norvegicus albino Wistar (rat) assessed as recovery of CCl4-induced cell damage at 50 mg/kg, po by hematoxylin and eosin staining; type: functional, organism-based; design: dose 50 mg/kg
Rattus norvegicus [5] = experiment: Antihepatotoxic activity Rattus norvegicus albino Wistar (rat) assessed as reduction of CCl4-induced increase of serum SGPT level at 50 mg/kg, po relative to control; type: functional; design: scale not given: the % may be the effect or the level left

C=C(C)C(/C=C/[C@@H](C)[C@H]1CCC2C3CC=C4C[C@@H](O[C@@H]5O[C@H](CO)[C@@H](O)[C@H](O)[C@H]5O)CC[C@]4(C)C3CC[C@@]21C)CC (stereo not given in full)
Activity (Rattus norvegicus [1]): 74.77% | Activity (Rattus norvegicus [2]): 121.19% | Activity (Rattus norvegicus [3]): 57.71% | Activity (Rattus norvegicus [4]): Active | Activity (Rattus norvegicus [5]): 52.25%
